Reference: ChEMBL document CHEMBL1201862, “PubChem BioAssay data set” (2004)
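Compound exposure: 48 hours, 5 concentrations, 96-well plates. Abbreviation: GI50, concentration required for 50% inhibition of growth.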 Activity calls are given as the source filed them. No stated cut-off is given here; in the data, active = GI50 up to about 1.1 µM and inactive = higher.

Tests used:
Test in all cases: NCI anticancer screen, dose series, 48 h
SNB-19 = tested on: SNB-19
OVCAR-8 = tested on: OVCAR-8
HCT-15 = tested on: HCT-15
CCRF-CEM = tested on: CCRF-CEM
NCI-H226 = tested on: NCI-H226
ACHN = tested on: ACHN
SK-MEL-2 = tested on: SK-MEL-2
SN12C = tested on: SN12C
OVCAR-4 = tested on: OVCAR-4
UO-31 = tested on: UO-31
786-0 = tested on: 786-0
SW-620 = tested on: SW-620
HL-60 = tested on: HL-60
RPMI-8226 = tested on: RPMI-8226
HT-29 = tested on: HT-29
OVCAR-3 = tested on: OVCAR-3
CAKI-1 = tested on: CAKI-1
SK-OV-3 = tested on: SK-OV-3
NCI-H522 = tested on: NCI-H522
HCC 2998 = tested on: HCC 2998

Structure (SMILES)	GI50 (SNB-19)	GI50 (OVCAR-8)	GI50 (HCT-15) [µM]	GI50 (CCRF-CEM)	GI50 (NCI-H226)	GI50 (ACHN)	GI50 (SK-MEL-2)	GI50 (SN12C)	GI50 (OVCAR-4)	GI50 (UO-31)	GI50 (786-0)	GI50 (SW-620)	GI50 (HL-60)	GI50 (RPMI-8226)	GI50 (HT-29)	GI50 (OVCAR-3)	GI50 (CAKI-1)	GI50 (SK-OV-3)	GI50 (NCI-H522)	GI50 (HCC 2998)
O=C(O)CS(=O)(=O)C(c1ccccc1)c1ccccc1	> 100 µM (inactive)	> 100 µM (inactive)	> 100	> 100 µM (inactive)	> 100 µM (inactive)	> 100 µM (inactive)	> 100 µM (inactive)	> 100 µM (inactive)	> 100 µM (inactive)	> 100 µM (inactive)	> 100 µM (inactive)	> 100 µM (inactive)	> 100 µM (inactive)	> 100 µM (inactive)	> 100 µM (inactive)	> 100 µM (inactive)	> 100 µM (inactive)	> 100 µM (inactive)	> 100 µM (inactive)	
OC1OC(c2ccc[nH]2)C(F)(F)C(F)(F)C1(F)F (configuration not stated)	> 100 µM (inactive)	> 100 µM (inactive)	> 100	73.6 µM (inactive)	> 100 µM (inactive)	> 100 µM (inactive)	> 100 µM (inactive)	> 100 µM (inactive)	73.1 µM (inactive)	97.7 µM (inactive)	> 100 µM (inactive)	> 100 µM (inactive)	43.5 µM (inactive)	> 100 µM (inactive)	> 100 µM (inactive)	> 100 µM (inactive)	87.3 µM (inactive)	> 100 µM (inactive)	> 100 µM (inactive)	
Cc1ccc(CC[PH](=O)CCc2ccc(C)nc2)cn1	> 100 µM (inactive)	> 100 µM (inactive)	> 100	> 100 µM (inactive)	> 100 µM (inactive)	> 100 µM (inactive)		> 100 µM (inactive)	> 100 µM (inactive)		> 100 µM (inactive)	> 100 µM (inactive)	> 100 µM (inactive)	> 100 µM (inactive)	> 100 µM (inactive)	> 100 µM (inactive)	> 100 µM (inactive)	> 100 µM (inactive)	> 100 µM (inactive)	> 100 µM (inactive)
COc1cc2c3c(c1Oc1nnnn1-c1ccccc1)-c1c(ccc4c1OCO4)C[C@H]3N(C)CC2	65.5 µM (inactive)	47.8 µM (inactive)	21.6	24.5 µM (inactive)	> 100 µM (inactive)	25.7 µM (inactive)	71.9 µM (inactive)	32.4 µM (inactive)		78.9 µM (inactive)	17.5 µM (inactive)	80.7 µM (inactive)	15.1 µM (inactive)	32.5 µM (inactive)	18.5 µM (inactive)	37.4 µM (inactive)		72.9 µM (inactive)	36.1 µM (inactive)	20.7 µM (inactive)
O=c1[nH]c(=S)c2cc3c(=S)[nH]c(=O)n(CCC(c4ccccc4)(c4ccccc4)c4ccccc4)c3nc2n1CCC(c1ccccc1)(c1ccccc1)c1ccccc1	> 100 µM (inactive)		> 100	13.6 µM (inactive)	> 100 µM (inactive)	> 100 µM (inactive)	> 100 µM (inactive)	> 100 µM (inactive)	> 100 µM (inactive)	> 100 µM (inactive)	> 100 µM (inactive)			> 100 µM (inactive)		> 100 µM (inactive)	> 100 µM (inactive)	> 100 µM (inactive)	> 100 µM (inactive)	> 100 µM (inactive)
CC(C)CCC[C@@H](C)[C@H]1CC[C@H]2[C@@H]3CC[C@H]4C[C@H](N)CC[C@]4(C)[C@H]3CC[C@]12C	15.6 µM (inactive)	24.4 µM (inactive)	24.8	2.83 µM (inactive)	17.3 µM (inactive)	17.5 µM (inactive)		22.9 µM (inactive)	21.9 µM (inactive)	13.5 µM (inactive)	20.4 µM (inactive)	31.6 µM (inactive)	3.34 µM (inactive)	20.7 µM (inactive)	18.3 µM (inactive)	26.6 µM (inactive)	16.4 µM (inactive)	22.6 µM (inactive)	21 µM (inactive)	16.4 µM (inactive)
CN(C)CCNS(=O)(=O)N(C)C	> 100 µM (inactive)	> 100 µM (inactive)	> 100	> 100 µM (inactive)	> 100 µM (inactive)	> 100 µM (inactive)	> 100 µM (inactive)	> 100 µM (inactive)	> 100 µM (inactive)		> 100 µM (inactive)	> 100 µM (inactive)	> 100 µM (inactive)	> 100 µM (inactive)	> 100 µM (inactive)	> 100 µM (inactive)	> 100 µM (inactive)	> 100 µM (inactive)	> 100 µM (inactive)	
CCN(CC)CCNc1ccc([N+](=O)[O-])c2nc3ccc(OC)cc3c(N)c12	1.67 µM (inactive)	1.47 µM (inactive)	1.27	0.248 µM (active)	2.32 µM (inactive)	1.43 µM (inactive)	1.05 µM (active)	1.44 µM (inactive)	1.22 µM (inactive)	1.67 µM (inactive)	0.614 µM (active)	0.191 µM (active)	0.0826 µM (active)	0.243 µM (active)	0.394 µM (active)	1.86 µM (inactive)	1.89 µM (inactive)	1.89 µM (inactive)	0.309 µM (active)	
CCOC(=O)C1(N)CC1	> 100 µM (inactive)	> 100 µM (inactive)	> 100	> 100 µM (inactive)	> 100 µM (inactive)	> 100 µM (inactive)		> 100 µM (inactive)	> 100 µM (inactive)	> 100 µM (inactive)	> 100 µM (inactive)	> 100 µM (inactive)	> 100 µM (inactive)	> 100 µM (inactive)	> 100 µM (inactive)	> 100 µM (inactive)	> 100 µM (inactive)		> 100 µM (inactive)	> 100 µM (inactive)
COc1ccc(/C=C2/NC(=S)N=C2Cl)cc1	> 100 µM (inactive)	> 100 µM (inactive)	> 100	> 100 µM (inactive)	> 100 µM (inactive)	> 100 µM (inactive)	> 100 µM (inactive)	> 100 µM (inactive)	> 100 µM (inactive)	> 100 µM (inactive)	> 100 µM (inactive)	> 100 µM (inactive)	> 100 µM (inactive)	> 100 µM (inactive)	> 100 µM (inactive)	> 100 µM (inactive)	> 100 µM (inactive)	> 100 µM (inactive)	> 100 µM (inactive)	
N#Cc1ccc(/C=C2\Cc3ccccc3C2=O)cc1	> 100 µM (inactive)	> 100 µM (inactive)	> 100	> 100 µM (inactive)	56.9 µM (inactive)	> 100 µM (inactive)		> 100 µM (inactive)	> 100 µM (inactive)	43.4 µM (inactive)	> 100 µM (inactive)	> 100 µM (inactive)	67.6 µM (inactive)	> 100 µM (inactive)	> 100 µM (inactive)	> 100 µM (inactive)	26.2 µM (inactive)	> 100 µM (inactive)	14.3 µM (inactive)	> 100 µM (inactive)
CC(C)=CCCC1(Sc2ccccc2)C(=O)OCC1C=C(C)C (configuration not stated)	21.5 µM (inactive)	30.5 µM (inactive)	29.9	32.4 µM (inactive)	24.3 µM (inactive)	32.5 µM (inactive)	18.5 µM (inactive)	15 µM (inactive)	29 µM (inactive)	22.6 µM (inactive)	17.7 µM (inactive)	61.9 µM (inactive)		21.5 µM (inactive)		17.3 µM (inactive)	23.2 µM (inactive)	21.1 µM (inactive)	23.2 µM (inactive)	29.8 µM (inactive)
COC1O[C@@H]2CCN3C(=O)[C@@H](OC(=O)c4ccc([N+](=O)[O-])cc4)[C@H]1C23 (some centres not stated)		> 100 µM (inactive)		> 100 µM (inactive)	> 100 µM (inactive)	> 100 µM (inactive)		> 100 µM (inactive)		> 100 µM (inactive)	> 100 µM (inactive)	> 100 µM (inactive)		> 100 µM (inactive)	> 100 µM (inactive)	> 100 µM (inactive)	> 100 µM (inactive)	> 100 µM (inactive)	> 100 µM (inactive)	> 100 µM (inactive)
COc1ccc(S(=O)(=O)N2C(=O)CCC2C(=O)NC(N)=O)cc1 (configuration not stated)	> 100 µM (inactive)	> 100 µM (inactive)	> 100	> 100 µM (inactive)	> 100 µM (inactive)	> 100 µM (inactive)	> 100 µM (inactive)	> 100 µM (inactive)	> 100 µM (inactive)	> 100 µM (inactive)	> 100 µM (inactive)	> 100 µM (inactive)	> 100 µM (inactive)	> 100 µM (inactive)	> 100 µM (inactive)	> 100 µM (inactive)	> 100 µM (inactive)	> 100 µM (inactive)	> 100 µM (inactive)	
Cc1ccc(S(=O)(=O)NC(=O)C2(Br)S(=O)(=O)OCCOS2(=O)=O)cc1	> 100 µM (inactive)	> 100 µM (inactive)	> 100	> 100 µM (inactive)	> 100 µM (inactive)	> 100 µM (inactive)	> 100 µM (inactive)	> 100 µM (inactive)	> 100 µM (inactive)	> 100 µM (inactive)	> 100 µM (inactive)		> 100 µM (inactive)	> 100 µM (inactive)	> 100 µM (inactive)	> 100 µM (inactive)		> 100 µM (inactive)	> 100 µM (inactive)	> 100 µM (inactive)
